Source: patent US20070077283A1, “METHOD OF ENHANCING TRANSMUCOSAL DELIVERY OF THERAPEUTIC COMPOUNDS” (Nastech Pharmaceutical Company Inc., priority 2005, published 2007)
Values belong to the compound of their own block, whether it stands above or below them.

Tests used:
[1] = tested on: human-derived tracheal/bronchial epithelial cells (EpiAirway Tissue Model); test: Transepithelial electrical resistance (TER) of an epithelial cell monolayer; assay type: cell-based; settings: for activity at 1000 µM: Homo sapiens, Epithelial cell, 1 h, read-out: Mean % of Original TER Value
Description: Inserts are feed for each day of recovery. TER measurements were accomplished using the Endohm-12 Tissue Resistance Measurement Chamber connected to the EVOM Epithelial Voltohmmeter (World Precision Instruments, Sarasota, Fla.) with the electrode leads. The electrodes and a tissue culture blank insert were equilibrated for at least 20 minutes in MatTek medium with the power off prior to checking calibration. The background resistance was measured with 1.5 ml media in the Endohm tissue chamber and 300 μl media in the blank insert. The top electrode was adjusted so that it was close to, but not making contact with, the top surface of the insert membrane. Background resistance of the blank insert was about 5-20 ohms. […] TER values are a function of the surface area of the tissue. […] By this method of calculation, TER will be expressed as both Ohms*cm2 and percent original TER value. […] Several different lipid types (see Table 1) were screened to select for lipids that are capable of enhancing the permeation of a biological agent across an epithelial cell monolayer. […] A reduction in TER correlates with the ability to enhance the permeation of a molecule and biological agent across an epithelia.

[2] = tested on: human-derived tracheal/bronchial epithelial cells (EpiAirway Tissue Model); test: in vitro
Description: Normal, human-derived tracheal/bronchial epithelial cells will serve as the model cell system for assessing the lipids listed in Table 1. The cells are supplied by MatTek Corp. (Ashland, Mass.) as the EpiAirway™ Tissue Model. The cells are provided as a confluent monolayer on a Millipore Milicell-CM cell culture insert with a pore size of 0.4 μM, inner diameter of 0.8 cm and surface area of 0.6 cm^2 and comprised of transparent hydrophilic Teflon (PTFE). Upon receipt, the membranes are cultured in 1 ml basal media (phenol red-free and hydrocortisone-free Dulbecco's Modified Eagle's Media (DMEM) at 37° C./5% CO2 for 24-48 hours before use. Inserts are feed for each day of recovery.
The amount of cell death was assayed by measuring the loss of lactate dehydrogenase (LDH) from the cells using a CytoTox 96 Cytotoxicity Assay Kit (Promega Corp., Madison, Wis.). A treatment of 1% Octylphenolpoly(ethyleneglycolether)x (Triton X-100™) diluted in PBS was used as a lysis control. One percent Triton X-100™ mediated cell lysis was normalized to 100%. For basal-lateral LDH levels, triplicates of 50 μl of the basal media were loaded into a 96-well assay plate. For apical LDH levels, 150 μl of Epi-Cm was added to the apical side of each chamber and mixed by pipeting. One hundred and fifty microliters was then removed and diluted 2-fold prior to performing the LDH assay. All apical LDH assay were performed in triplicate and with 50 μl of the diluted test solution. Fresh, cell-free culture medium will be used as a blank. Total LDH levels were determined by lysing cells in a final concentration of 0.9% Triton-X100™. Fifty microliters of substrate solution was added to each well and the plates incubated for 30 minutes at room temperature in the dark. Following incubation, 50 μl of stop solution was added to each well and the plates read on an optical density plate reader at […]. Cytotoxicity was expressed as a percentage calculated by subtracting the average absorbance of the PBS control wells as the endogenously released LDH level and expressing that value relative to the average Triton-X100 control, which represents total LDH content. [formula] Osmolality
For the instant application, phosphate buffered saline (PBS) served as a negative control for both the TER assay and LDH (cytotoxicity) assay. […] TER measurements and LDH levels were taken immediately after a one hour treatment of the cultured cells with each lipid, unless specified otherwrise.
TER reduction was expressed as the percent decrease in TER value from time zero to one hour post-treatment. Thus, greater percent reduction in TER represents less electrical resistance across the epithelial cell monolayer and consequently greater epithelial cell permeation. Cytotoxicity (LDH levels) for each lipid was expressed as a percent of the LDH levels measured after Triton-X100 treatment of the cells. Triton-X100™ LDH levels were normalized to 100%.

[3] = tested on: human-derived tracheal/bronchial epithelial cells (EpiAirway Tissue Model); test: FITC-Dextran permeation assay across epithelial cell monolayer; assay type: cell-based; settings: for Mean % FD3 Permeation: FITC-dextran 3000 (Table 4); for permeation of FD3 relative to negative controls: text summary of Table 4
Description: Each tissue insert was placed in an individual well containing 1 ml of MatTek basal media. On the apical surface of the inserts, 20 μl of test formulation was applied according to study design, and the samples were placed on a shaker (˜100 rpm) for 1.5 hours at 37° C. FITC-labeled dextran solution was added to inserts apically and a fluorescence measurement was taken from the basolateral media after the incubation period. Two hundred microliters of the basal media for each test formulation was transferred to a dark-wall fluorescent reading plate. Each test formulation was tested in triplicate. Fluorescent intensity was measured at 470 nM with the microplate fluorescence reader FLx800 (Bio-Tek Instruments, Inc., Winooski, Vt.). A FITC labeled dextran with a molecular weight of 3 kDA, 10 kDA, 20 kDA, 40 kDA, 70 kDA and/or 500 kDA was used to assess the ability of individual lipids to deliver a model protein across an epithelia.
Permeation is expressed as percent permeation and was calculated as follows: [formula] [formula] Terms
PBS and 0.3% Triton-X100™ served as […]. […] FD permeation was presented as the percent of FD that crossed from the apical side of the epithelial cell monolayer to the basolateral cell surface.

[4] = tested on: human-derived tracheal/bronchial epithelial cells (EpiAirway Tissue Model); test: Cell viability (MTT assay); assay type: cell-based; settings: compared with PBS negative control (Example 5)
Description: Cell viability will be assessed using the MTT assay (MTT-100, MatTek kit). This kit measures the uptake and transformation of tetrazolium salt to formazan dye. Thawed and diluted MTT concentrate is prepared 1 hour prior to the end of the dosing period with the lipid by mixing 2 mL of MTT concentrate with 8 mL of MTT diluent. Each cell culture insert is washed twice with PBS containing Ca^+2 and Mg^+2 and then transferred to a new 96-well transport plate containing 100 μL of the mixed MTT solution per well. This 96-well transport plate is then incubated for three hours at 37° C. and 5% CO2. After the three hour incubation, the MTT solution is removed and the cultures are transferred to a second 96-well feeder tray containing 250 μL MTT extractant solution per well. An additional 150 μL of MTT extractan solution was added to the surface of each culture well and the samples sat at room temperature in the dark for a minimum of two hours and maximum of 24 hours. The insert membrane was then pierced with a pipet tip and the solutions in the upper and lower wells were allowed to mix. Two hundred microliters of the mixed extracted solution along with extracted blanks (negative control) was transferred to a 96-well plate for measurement with a microplate reader. The optical density (OD) of the samples was measured at 570 nm with the background subtraction at 650 nm on a plate reader. Cell viability was expressed as a percentage and calculated by dividing the OD readings for treated inserts by the OD readings for the PBS treated inserts and multiplying by 100. For the purposes of this assay, it was assumed that PBS had no effect on cell viability and therefore represented 100% cell viability.

[5] = lipid 1000 μM, percent decrease in TER from time zero
[6] = lipid 1000 μM, lower value = greater TER reduction (Table 4)

- LDH levels ([2]; human, 1 h): below 30%
SMILES: CCCCCCCCCCCCCCCC(=O)OC[C@H](COP(=O)([O-])OCC[N+](C)(C)C)OC(=O)CCCCCCCC=O [16:0-09:0(ALDO)PC, 1-Palmitoyl-2-(9′-oxo-Nonanoyl)-sn-Glycero-3-Phosphocholine]
- Mean TER Reduction 1 hr. Post-treatment [1, 5]: 81%
- Cytotoxic Effect (LDH) 1 hr. Post-treatments ([2]; human, 1 h, 1000 μM): 10%
- % FITC-Dextran Permeation FD3 ([3]; lipid 1000 μM (Table 5)): 0%
- MTT levels (cell viability) [4]: MTT levels comparable to that of the PBS negative control

- LDH levels ([2]; human, 1 h): below 30%
SMILES: CCCCCCCCCCCCCCCCOC[C@H](COP(=O)([O-])OCC[N+](C)(C)C)OC(=O)CCCCCCCC(=O)O [Azelaoyl PAF (C16-09:0), 1-O-Hexadecyl-2-Azelaoyl-sn-Glycero-3-Phosphocholine]
- activity at 1000 µM [1, 6]: -5%
- Mean TER Reduction 1 hr. Post-treatment ([1]; lipid 62.5 μM): 41%
- Mean TER Reduction 1 hr. Post-treatment ([1]; lipid 125 μM): 76%
- Mean TER Reduction 1 hr. Post-treatment ([1]; lipid 250 μM): 93%
- Mean TER Reduction 1 hr. Post-treatment ([1]; lipid 500 μM): 93%
- Mean TER Reduction 1 hr. Post-treatment [1, 5]: 95%
- Cytotoxic Effect (LDH) 1 hr. Post-treatments ([2]; human, 1 h, 62.5 μM): 2%
- Cytotoxic Effect (LDH) 1 hr. Post-treatments ([2]; human, 1 h, 125 μM): 5%
- Cytotoxic Effect (LDH) 1 hr. Post-treatments ([2]; human, 1 h, 250 μM): 10%
- Cytotoxic Effect (LDH) 1 hr. Post-treatments ([2]; human, 1 h, 500 μM): 16%
- Cytotoxic Effect (LDH) 1 hr. Post-treatments ([2]; human, 1 h, 1000 μM): 26%
- Mean % Relative Cytotoxic Effect (LDH) ([2]; human, 1 h, 1000 μM): 3%
- % FITC-Dextran Permeation FD3 ([3]; lipid 250 μM (Table 5)): 1%
- Mean % FD3 Permeation ([3]; lipid 1000 μM): 9%
- permeation of FD3 relative to negative controls [3]: enhanced the permeation of FD3 above that of the negative controls
- MTT levels (cell viability) [4]: MTT levels comparable to that of the PBS negative control

SMILES: CCCCCCCCCCCCCCCCCCOC[C@H](COP(=O)([O-])OCC[N+](C)(C)C)OC [18:0-1:0 Diether PC, 1-O-Octadecyl-2-O-Methyl-sn-Glycero-3-Phosphocholine]
- activity at 1000 µM [1, 6]: 111%
- Mean TER Reduction 1 hr. Post-treatment ([1]; lipid 500 μM): 89%
- Mean TER Reduction 1 hr. Post-treatment [1, 5]: 99%
- Cytotoxic Effect (LDH) 1 hr. Post-treatments ([2]; human, 1 h, 500 μM): 26%
- Cytotoxic Effect (LDH) 1 hr. Post-treatments ([2]; human, 1 h, 1000 μM): 50%
- Mean % Relative Cytotoxic Effect (LDH) ([2]; human, 1 h, 1000 μM): −1%
- % FITC-Dextran Permeation FD3 ([3]; lipid 500 μM (Table 5)): 5%
- Mean % FD3 Permeation ([3]; lipid 1000 μM): 0%
- MTT levels (cell viability) [4]: MTT levels comparable to that of the PBS negative control

SMILES: CCCCC/C=C\C/C=C\C/C=C\C/C=C\CCCC(=O)O[C@H](COCCCCCCCCCCCCCCCC)COP(=O)([O-])OCC[N+](C)(C)C [C16-20:4 PC, 1-O-Hexadecyl-2-Arachidonoyl-sn-Glycero-3-Phosphocholine]
- activity at 1000 µM [1, 6]: 96%
- Mean % Relative Cytotoxic Effect (LDH) ([2]; human, 1 h, 1000 μM): 0%
- Mean % FD3 Permeation ([3]; lipid 1000 μM): 0%

- LDH levels ([2]; human, 1 h): below 30%
SMILES: CCCCCCCCCCCCCCCC(=O)OC[C@H](COP(=O)([O-])OCC[N+](C)(C)C)OC(=O)CCCCCCCC(=O)O [16:0-09:0(COOH)PC, 1-Palmitoyl-2-Azelaoyl-sn-Glycero-3-Phosphocholine]
- Mean TER Reduction 1 hr. Post-treatment ([1]; lipid 500 μM): 92%
- Cytotoxic Effect (LDH) 1 hr. Post-treatments ([2]; human, 1 h, 500 μM): 9%
- % FITC-Dextran Permeation FD3 ([3]; lipid 500 μM (Table 5)): 3%
- MTT levels (cell viability) [4]: MTT levels comparable to that of the PBS negative control

SMILES: CCCCCCCCCCCCCCCCOC[C@H](COP(=O)([O-])OCC[N+](C)(C)C)OC(=O)CCC [C16-04:0 PC, 1-O-Hexadecyl-2-Butyroyl-sn-Glycero-3-Phosphocholine]
- activity at 1000 µM [1, 6]: 0%
- Mean % Relative Cytotoxic Effect (LDH) ([2]; human, 1 h, 1000 μM): 22%
- Mean % FD3 Permeation ([3]; lipid 1000 μM): 7%
- permeation of FD3 relative to negative controls [3]: enhanced the permeation of FD3 above that of the negative controls

SMILES: CCCCCCCCCCCCCCCCOC[C@H](COP(=O)([O-])OCC[N+](C)(C)C)OC(=O)NC [C-PAF, 1-O-Hexadecyl-2-N-Methylcarbamyl-sn-Glycero-3-Phosphocholine]
- Mean % of Original TER Value ([1]; lipid 500 μM (Table 4)): 10%
- Mean % of Original TER Value [1, 6]: 2%
- Mean % Relative Cytotoxic Effect (LDH) ([2]; lipid 500 μM (Table 4)): 11%
- Mean % Relative Cytotoxic Effect (LDH) ([2]; lipid 1000 μM (Table 4)): 15%
- Mean % FD3 Permeation ([3]; lipid 500 μM): 11%
- Mean % FD3 Permeation ([3]; lipid 1000 μM): 12%
- permeation of FD3 relative to negative controls [3]: enhanced the permeation of FD3 above that of the negative controls

SMILES: CCCCCCCCCCCCCCCCCCOC[C@H](COP(=O)([O-])OCC[N+](C)(C)C)OC(=O)CCC [C18-04:0 PC, 1-O-Octadecyl-2-Butyroyl-sn-Glycero-3-Phosphocholine]
- activity at 1000 µM [1, 6]: 85%
- Mean % Relative Cytotoxic Effect (LDH) ([2]; human, 1 h, 1000 μM): −3%
- Mean % FD3 Permeation ([3]; lipid 1000 μM): 0%

SMILES: CCCCCCCCCCCCCCCCOC[C@H](CO)OC(C)=O [C16-02:0 DG, 1-O-Hexadecyl-2-Acetoyl-sn-Glycerol]
- activity at 1000 µM [1, 6]: 98%
- Mean % Relative Cytotoxic Effect (LDH) ([2]; human, 1 h, 1000 μM): −3%
- Mean % FD3 Permeation ([3]; lipid 1000 μM): 0%
